Reference: article PMC6888386, “Identification of Novel 1,3,5-Triphenylbenzene Derivative Compounds as Inhibitors of Hen Lysozyme Amyloid Fibril Formation” (International Journal of Molecular Sciences, 2019)
pIC50: −log10 of the molar value.

Tests used:
[1] = biological target: T1, hen egg white lysozyme (HEWL) (Gallus gallus, UniProt P00698); assay: ThT fluorescence assay of HEWL amyloid fibril formation; format: biochemical; conditions: 48 h; for pIC50: HEWL 2 mg/mL (140 µM), 50 mM glycine buffer pH 2.5, 57 °C, stirring 250 rpm, compound 0.03-2.6 µM, Figure 2, read-out: IC50 of prevention of HEWL amyloid fibril formation
T1 construct: Hen egg white lysozyme (HEWL), thioflavin T (ThT), and Congo red (CR) were purchased from Sigma-Aldrich; purchased Sigma-Aldrich (St. Louis, MO, USA); host or cells: hen egg white (per the product name)
Description: The inhibition potential of the six compounds was determined using the ThT fluorescence assay to measure the amount of amyloid aggregates after the addition of various concentrations of each compound ranging from 0.03 to 2.6 µM. Aggregation of HEWL was induced by incubating the protein for 48 h at a concentration of 2 mg/mL (140 µM) in 50 mM glycine buffer, pH 2.5, and 57 °C, while stirred gently by magnetic bars (rpm 250), in the absence or presence of 0.03–2.6 µM compounds 1–6. […] The IC50 values of the compounds, corresponding to the concentration at which the inhibitory effect is half of the maximum effect, were determined (Figure 2).
(§1) HEWL concentration was determined by optical absorption at 280 nm (ε280 = 2.65 L·g^−1·cm^−1). HEWL was dissolved to a concentration of 2 mg/mL (140 µM) in 50 mM glycine buffer, pH 2.5, centrifuged for 10 min at 13,000 rpm, then incubated at 57 °C for the specified time lengths in the absence or presence of the indicated concentrations of compounds 1–6, under gentle stirring at 250 rpm by a Teflon magnetic bar.
A mother solution of 2.5 mM ThT was prepared in 10 mM sodium phosphate buffer, 150 mM NaCl, pH 7.0. It was then passed through a 0.45 μm filter paper and stored at 4 °C until it was placed at room temperature immediately before use. At regular time intervals, a 10 µL aliquot of protein solution was mixed with 990 μL of ThT solution in a 10 × 10 mm quartz cuvette and the fluorescence emission spectra were recorded at room temperature using a Cary Eclipse VARIAN fluorescence spectrophotometer (Varian, Mulgrave, Australia) and an excitation wavelength of 440 nm.

[2] = tested on: caspase-3 activity in SH-SY5Y cells; assay: Caspase-3 activity after exposure to HEWL aggregates; format: cell-based, human; conditions: 24 h; for Prevention of the apoptotic response (caspase-3 activation) induced by aggregates: 2 µM HEWL aggregates formed in the presence of 0.32 µM compound
Description: (§2) We then assessed the cytotoxicity of HEWL aggregates, formed in the absence or presence of compounds 1–6, according to the aggregation protocol described for the ThT experiments. HEWL aggregates were collected by centrifugation, dried under N2, dissolved in cell culture medium, and added to SH-SY5Y human neuroblastoma cells at a concentration of 2 µM (monomer equivalents). The ability of the resulting aggregates to cause cellular dysfunction was assessed by performing the MTT reduction inhibition assay, a widely used indicator of mitochondrial dysfunction. […] Very similar results were obtained by measuring the activity of caspase-3, a well-recognized apoptotic marker. A significant activation of caspase-3 (320 ± 12%, as compared to untreated cells) was observed following treatment for 24 h of SH-SY5Y cells with HEWL aggregates at 2 µM (Figure 7B).
(§3) Authenticated human neuroblastoma SH-SY5Y cells were purchased from American Type Culture Collection (ATCC) (Manassas, VA, USA) and they tested negative for mycoplasma contaminations. SH-SY5Y cells were cultured in Dulbecco’s modified Eagle’s medium (DMEM), F-12 Ham with 25 mM HEPES and NaHCO3 (1:1) supplemented with 10% fetal bovine serum (FBS), 1.0 mM glutamine and 1.0% penicillin and streptomycin solution. Cells were maintained in a 5.0% CO2 humidified atmosphere at 37 °C and grown until 80% confluence for a maximum of 20 passages.
HEWL aggregates were formed in the absence or in the presence of 0.32 µM of compounds 1–6 as described in the previous section and then added to the cell culture medium of SH-SY5Y cells seeded on glass coverslips for 24 h at 2 μM (monomer equivalents). Caspase-3 activity was then analyzed by using FAM FLICA^TM caspases 3 & 7 solution (caspase 3 & 7 FLICA kit FAM-DEVDFMK, Immunochemistry Technologies, LLC, Bloomington, MN, USA). Cell fluorescence was analyzed by the TCS SP8 scanning confocal microscopy system (Leica Microsystems, Mannheim, Germany) equipped with an argon laser source, as previously reported. A series of 1.0 μm thick optical sections (1024 × 1024 pixels) was taken through the cell depth for each sample using a Leica Plan Apo 63 × oil immersion objective for fluorescence measurement at 488 nm. The confocal microscope was set at optimal acquisition conditions, e.g., pinhole diameters, detector gain, and laser powers. Settings were maintained constant for each analysis.

[3] = biological target: T1, hen egg white lysozyme (HEWL); assay: Congo red (CR) assay of HEWL aggregation; format: biochemical; conditions: 0.32 µM compound; for CR absorbance relative to that measured in the absence of the compounds: HEWL pre-incubated 48 h under aggregating conditions
Description: Aliquots of the same samples used for ThT experiments were also used to carry out the CR assays. […] The higher CR absorbance obtained in the presence of HEWL is likely to originate from the presence of protein aggregates that scatter light, whereas the red shift of the peak from 490 to 520–540 nm indicates the presence of β-sheet containing aggregates.
as §1
Since compounds 1–6 have optical absorption spectra partially overlapped to that of CR, all protein samples were centrifuged at 10,000 rpm and the pellets resuspended in 50 mM glycine buffer, pH 2.5, at room temperature. A mother solution of 20 mM CR was prepared in 5 mM sodium phosphate buffer, 150 mM NaCl, pH 7.4, it was then filtered using a center-glass N4 filter and stored at 4 °C, until it was placed at room temperature immediately before use. At different time points during protein aggregation, a 60 μL aliquot of resuspended protein solution was mixed with 440 μL of CR solution. Optical absorption spectra were acquired after 2–3 min equilibration at 25 °C, using a Cecil 7200 UV–visible spectrophotometer (Aquarius, Cambridge, England) and a 1 cm path-length cell.

[4] = tested on: SH-SY5Y human neuroblastoma cells; assay: MTT reduction test with HEWL aggregates; format: cell-based; conditions: for Rescue of cell viability (MTT reduction): 2 µM HEWL aggregates formed in the presence of 0.32 µM compound
Description: as §2, §3
HEWL samples pre-incubated for 48 h under aggregating conditions in the absence or presence of 0.32 µM compounds 1–6 were centrifuged and the pellets were dried under N2 to remove any compounds and DMSO, dissolved in cell culture medium at a final HEWL concentration of 2 μM (monomer equivalents), and added to SH-SY5Y cells seeded in 96-well plates for 24 h at 37 °C. The cell medium was then removed and the MTT solution (0.5 mg/mL in RPMI) was added to the cells for 4 h. The medium was then aspirated, and the formazan product was solubilized with cell lysis buffer (20% SDS, 50% N, N-dimethylformamide, pH 4.7) for 1 h, as previously described.

[5] = biological target: T1, hen egg white lysozyme (HEWL); assay: Atomic force microscopy of HEWL aggregates; format: biochemical; conditions: 0.32 µM compound, HEWL 140 µM, pH 2.5, 57 °C, 48 h
Description: In order to define further the nature of the aggregated species, an analysis of their morphologies was carried out using AFM. HEWL was incubated under the same aggregation conditions used for the ThT, CR, and FTIR experiments, i.e., for 48 h at a concentration of 2 mg/mL (140 µM) in 50 mM glycine buffer, pH 2.5, and 57 °C, under stirring (250 rpm), in the absence or presence of 0.32 µM of compounds 1–6 and the resulting samples were examined by AFM (Figure 6). […] Rather, oligomeric and/or amorphous species were predominant.
HEWL samples pre-incubated for 48 h under aggregating conditions with or without 0.32 µM compounds 1–6 were diluted 100 times in filtered deionized water. A 5 µL aliquot of each of the resulting samples was placed on freshly cleaved mica at room temperature. After a few minutes, the mica was slowly washed with 100 μL of deionized water and dried with N2. Each image was acquired in a non-contact mode at a scan speed of 30 μm/s, loop filter of 3 Hz and force of 200 nN with a Dual Scope Probe Scanner (Veeco, model Auto probe, CP-Research, CA, USA) with an area of 5 × 5 μm^2. Conical shape silicon tips (MikroMasch NSC16) with a resonance frequency of 150 kHz and a nominal constant of 40 N/m were used. Fifteen images were collected for each compound.

[6] = 24 h, 2 µM (monomer equivalents) HEWL aggregates formed in the presence of 0.32 µM compound
[7] = 24 h exposure, 2 µM (monomer equivalents), no compound

T1 sequence (P00698 19-147): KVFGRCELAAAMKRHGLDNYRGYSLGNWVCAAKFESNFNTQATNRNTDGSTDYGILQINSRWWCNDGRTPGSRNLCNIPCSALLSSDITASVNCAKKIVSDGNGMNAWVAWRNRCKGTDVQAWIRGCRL

Row | Compound | melting point [°C] | pIC50 [1] | Prevention of the apoptotic response (caspase-3 activation) induced by aggregates [2] | CR absorbance relative to that measured in the absence of the compounds [3] | MTT reduction relative to untreated cells [4, 6] [%] | Rescue of cell viability (MTT reduction) ([4]; 24 h) | Morphology of HEWL aggregates by AFM [5] | Relative efficacy as inhibitor in terms of IC50 value ([1]; HEWL 140 µM, pH 2.5, 57 °C) | Absorbance peak at 540 nm in CR difference spectra ([3]; 48 h, spectrum of CR alone subtracted) | Activation of caspase-3 as compared to untreated cells ([2]; HEWL aggregates at 2 µM, no compound) [%] | MTT reduction relative to untreated cells [4, 7]
1 | c1ccc(-c2cc(-c3ccccc3)cc(-c3ccccc3)c2)cc1 [Compound 1, 1,3,5-triphenylbenzene] | 171 to 173 | 7.00 | significantly prevented | lower | 92.7 ± 3.2 |  |  |  |  |  | 
2 | O=[N+]([O-])c1ccc(-c2cc(-c3ccc([N+](=O)[O-])cc3)cc(-c3ccc([N+](=O)[O-])cc3)c2)cc1 [Compound 3, 1,3,5-tris(4-nitrophenyl)benzene] | 151 to 152 | 6.72 | only a slight protective effect | lower |  | partial rescue |  |  |  |  | 
3 | Cc1ccc(-c2cc(-c3ccc(C)cc3)cc(-c3ccc(C)cc3)c2)cc1 [Compound 4, 1,3,5-tris(4-methylphenyl)benzene] | 178 to 179 | 6.40 | significantly prevented | lower |  | partial rescue |  |  |  |  | 
4 | COc1ccc(-c2cc(-c3ccc(OC)cc3)cc(-c3ccc(OC)cc3)c2)cc1 [Compound 5, 1,3,5-tris(4-methoxyphenyl)benzene] | 142 to 143 | 6.70 | significantly prevented | lower | 93.9 ± 2.9 |  | a few short fibrillar assemblies along with oligomeric species |  |  |  | 
5 | Oc1ccc(-c2cc(-c3ccc(O)cc3)cc(-c3ccc(O)cc3)c2)cc1 [Compound 6, 1,3,5-tris(4-hydroxyphenyl)benzene] | 237 to 239 | 6.01 | only a slight protective effect | markedly higher |  | partial rescue | a mixture of unbranched filamentous assemblies | minimum effect | only a modest decrease |  | 
6 | HEWL aggregates: hen egg white lysozyme aggregates formed 48 h at pH 2.5, 57 °C in the absence of compounds |  |  |  |  |  |  |  |  |  | 320 ± 12 | 73.9 ± 2.1%
7 | native HEWL: native hen egg white lysozyme |  |  |  |  |  |  |  |  |  |  | unaffected
